Results taken from article PMC10319809, “Chronic UCN2 treatment desensitizes CRHR2 and improves insulin sensitivity” (Nature Communications, 2023).
Several values for one entry are separate records, joined by “and”; a condition that tells them apart may be missing. Identical values can stand only once. Where no end group is shown, it is not given here.

Experiments:
hCRHR2α Gq = molecular target: T1, hCRHR2α Gq (Homo sapiens, UniProt Q13324); assay: ebBRET EMTA, Gq biosensor; type: cell-based; conditions: HEK293 cells, CRHR2a, n = 2 independent experiments
T1 construct: expressed in transfected cells; host or cells: HEK293 cells (Millipore Sigma), transient PEI co-transfection with biosensor plasmids at Domain Therapeutics
T1 sequence (Q13324 1-411): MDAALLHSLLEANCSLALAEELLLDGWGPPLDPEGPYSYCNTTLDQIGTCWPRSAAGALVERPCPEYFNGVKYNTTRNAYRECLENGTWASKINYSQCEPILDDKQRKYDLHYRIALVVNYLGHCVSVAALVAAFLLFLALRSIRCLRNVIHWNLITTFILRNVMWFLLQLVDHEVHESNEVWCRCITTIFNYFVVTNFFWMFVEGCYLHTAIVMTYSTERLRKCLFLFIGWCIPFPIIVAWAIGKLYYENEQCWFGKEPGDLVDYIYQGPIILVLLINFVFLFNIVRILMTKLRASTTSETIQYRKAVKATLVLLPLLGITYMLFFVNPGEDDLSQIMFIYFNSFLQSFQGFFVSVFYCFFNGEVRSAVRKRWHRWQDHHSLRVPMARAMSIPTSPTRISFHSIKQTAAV
Procedure: (§1) Typically, GPCR desensitization is carried out through the recruitment of β-Arrestins or alternative G-proteins to the receptor. To identify whether these proteins are recruited to CRHR2 in response to UCN2, enhanced bystander bioluminescence resonance energy transfer (ebBRET)-based effector membrane translocation assays (EMTA) were carried out in HEK293 cells[28],[29]. Cells were co-transfected with plasmids expressing unmodified CRHR2a (alpha isoform) and one of various pathway-specific biosensors. […]
(§2) Effector membrane translocation biosensor assays (bioSensAll®) were conducted at Domain Therapeutics NA Inc. (Montreal, QC, Canada) and described in cells[28],[29]. […] Briefly, DNA and PEI were diluted separately in 150 mM NaCl, mixed and then incubated for at least 20 min at room temperature (note: salmon sperm DNA (Invitrogen) was used to adjust the total amount of DNA transfected to a final quantity of 1 ug per mL of cell culture to be transfected). During the 20-minute incubation, HEK293 cells were detached, counted and resuspended into cell culture medium to a final density of 350,000 cells per mL. […] Cells were then incubated at room temperature for 10 min and BRET readings subsequently collected with a 0.4 s integration time on a Synergy NEO plate reader (BioTek Instruments, Inc., USA; filters: 400 nm/70 nm, 515 nm/20 nm). […]

human CRHR2a (Gs) = molecular target: T2, human CRHR2a (Gs) (Homo sapiens, UniProt Q13324); assay: ebBRET effector membrane translocation assay (EMTA), Gs biosensor; type: cell-based; conditions: comparison of concentration response curves; Gs at lower concentration
T2 construct: expressed in transfected cells; host or cells: HEK293 cells (Millipore Sigma), transient PEI co-transfection with biosensor plasmids at Domain Therapeutics
T2 sequence (Q13324 1-411): T1 sequence (Q13324 1-411)
Procedure: as §1, §2

[1] = tested on: soleus and gastrocnemius muscle; assay: In vivo [3H]2-deoxyglucose uptake in soleus and gastrocnemius muscle; design: species or system mouse; conditions: [3H]2DG; for 2DG Uptake, gastrocnemius muscle: individual animals (Fig. 2I); for 2DG Uptake, soleus muscle: individual animals (Fig. 2J)
Procedure: To determine 2-deoxy-glucose (2DG) uptake in soleus and gastrocnemius muscle, mice were fasted for 5 h and anaesthetized with isoflurane. […] 15 min following 2DG administration, blood was collected via intracardiac stick and soleus and gastrocnemius muscles were dissected and snap frozen in liquid nitrogen. Samples were stored at −80 C until processing. Blood was treated with BaOH2 and ZnSO4 and after centrifugation, radioactivity was determined via liquid scintillation counting (Tri-Carb 5110TR, PerkinElmer, Waltham, MA). Tissue was homogenized and mixed with water or BaOH2 and ZnSO4 to determine total and unphosphorylated 2DG content.

[2] = UCN2 1 mg/kg IP +Insulin 0.75 IU/kg
[3] = UCN2 1 mg/kg IP +Veh (no insulin)

In the case of “IVLSLDVPIGLLQILLEQARARAAREQATTNARILARVGHC-NH2 (C-terminus assumed) [UCN2, Urocortin 2]”, the Gq recruitment (hCRHR2α Gq) is reported as “not recruited”, the “UCN2 concentration for Gs activation versus engagement of Gi and β-Arrestin” value (human CRHR2a (Gs)) is reported as “more than 10 fold” and the “2DG Uptake, gastrocnemius muscle” value [1, 2] is reported as 17.97 µmol/g/h and 16.61 µmol/g/h and 11.65 µmol/g/h and 22.6 µmol/g/h and 21.1 µmol/g/h and 20.95 µmol/g/h and 16.15 µmol/g/h and 12.85 µmol/g/h. For the same substance, the “2DG Uptake, soleus muscle” value [1, 2] was 25.34 µmol/g/h and 15.14 µmol/g/h and 16.51 µmol/g/h and 20.54 µmol/g/h and 24.42 µmol/g/h and 24.35 µmol/g/h and 25.91 µmol/g/h and 18.85 µmol/g/h, the “2DG Uptake, gastrocnemius muscle” value [1, 3] was 2.37 µmol/g/h and 2.36 µmol/g/h and 2.81 µmol/g/h and 1.95 µmol/g/h and 2.97 µmol/g/h and 3.08 µmol/g/h and 2.83 µmol/g/h and 3.26 µmol/g/h and the “2DG Uptake, soleus muscle” value [1, 3] was 2.44 µmol/g/h and 2.26 µmol/g/h and 2.42 µmol/g/h and 2.39 µmol/g/h and 2.31 µmol/g/h and 2.62 µmol/g/h and 3.69 µmol/g/h.
